The conditions of data set [1]: cited from earlier work; for Ambient Solution pH: commercial drug solution; for pH beyond which significant precipitation occurs: intravenous infusion, commercial drugs.
In data set [2] the test system is soft tissues. As to conditions: extravasation about the site of attempted intravenous administration; cited from earlier work.
The nature of data set [3]: physchem. In kind it is physicochemical. As to the method: (§1) Because the antiarthritic triazine compound is a base, organic acids as counter-ions were studied to improve drug solubility. […] Additional drug complexes were prepared with various organic and inorganic acids. […] The inherent insolubility of the drug appears to be responsible, to some extent, for the preceding results. In order to overcome the drug insolubility problem one of the objectives considered was to design a dosage form which would improve drug absorption when given by intravenous, intramuscular or intra-articular injection.

A short description of data set [4]: Absorption and excretion of antiarthritic triazine candidate dosage forms. The conditions noted are these: in vivo. As to the method:
as §1

Data set [5] deals with Marginal Ear Vein of Rabbits. In words: Peripheral vein irritation on intravenous infusion, rabbits (Table IV). As to conditions: 2 hour i.v. infusion, gross postmortem one day after. In kind it is in vivo, rabbit. Also noted: key: +: Positive or present; -: Negative or absent. As for the experimental part:
The emulsion drug delivery system formulation of Emulsions 3 and 4 in Table III was tested in two species of animals, for peripheral vein irritation in order to determine the occurrence of local injection site adverse reactions. […] The two species of animals used were rabbits and dogs. The formulations were given intravenously in a peripheral vein using a Butterfly infusion set (Becton, Dickenson Co., Inc., Rutherford, N.J.). The marginal ear vein was used in the rabbit and the saphenous or the cephalic vein of the leg was used in the dog.
The formulations were given by slow intravenous infusion using a Sage syringe pump (Sage Instruments, Orion Research Inc., Cambridge, MA) over a 2 hour period. The animals were restrained but unanesthetized during the infusion. After the infusion, the animals were returned to their cages and offered food. The animals were sacrificed one day after the infusion.
At sacrifice, the infused vein was opened from the point of infusion and cardiad for several centimeters. The condition of the vein, its intima and the surrounding parenchyma, as well as the presence or absence of orange-yellow material and/or clots in the vein, were recorded in Tables IV and V.

Data set [6] is described as follows: Solubility of bisantrene in selected media and biological fluids (Table IB). It is filed as physicochemical.
A short description of data set [7]: Partitioning of bisantrene in blood. It is filed as in vitro ADME. The conditions noted are these: inferred from solubility characteristics and other information. The text has this: In serum and plasma, however, due to increase in the pH, the solubility drops considerably and this may be the reason that the drug precipitates at the point of infusion. […] Thus, if the drug can be kept in solution long enough to allow complete dilution in the entire blood volume, then the partitioning should take place without the intermediate precipitation.

For data set [8] the following is noted: challenge tests, benzyl alcohol vs parabens as preservative; cited from earlier work.
For data set [9] the following is noted: cited from earlier work.
Data set [10] deals with mammals. As to conditions: aqueous solution, intravenous; cited from earlier work.
For data set [11] the following is noted: dissolved in oil phase of soybean oil emulsion, parenteral; cited from earlier work.
For data set [12] the following is noted: propylene glycol, benzyl alcohol and ethyl alcohol as solvents; cited from earlier work.
The test system of data set [13] is normal human subjects. The conditions noted are these: single doses of 2.0 g, 24 subjects, cited from earlier work.

The structures appear in SMILES notation. ≈ marks a conversion by molar mass, not a printed value. Structures can show the parent of a compound that is named as a salt.

On to `CC(C)NCC(O)COc1cccc2ccccc12` (racemic) [Inderal, propanolol], for which, in data set [1], the “Ambient Solution pH” value was 3.50 and the “pH beyond which significant precipitation occurs” value is given as 6.00.
As for `COc1cccc2c1C(=O)c1c(O)c3c(c(O)c1C2=O)C[C@@](O)(C(=O)CO)C[C@@H]3O[C@H]1C[C@H](N)[C@H](O)[C@H](C)O1` [Adriamycin], in [2], the “tissue damage on extravasation” value is listed as “massive tissue necrosis”.
In data set [3], `CC(C)(C)C(C)(C)Nc1nc(NC(C)(C)C(C)(C)C)nc(N2CC3CCC(CC3)C2)n1` [Antiarthritic Triazine Compound, 3-[4,6-bis[(1,1-2,2-tetramethylpropyl)amino]-s-triazin-2-yl]-3-azabicyclo[3.2.2]nonane] registered an increase of solubility of 500 to 1000 µg/mL. Moreover, the solubility (in general, the concentration that dissolves in the medium under given conditions) in data set [3] was 300 µg/mL (≈ 697 µM); in [3] (1,3-butylene glycol, organic solvent or mixture) it was 300 µg/mL (≈ 697 µM); in data set [3] (benzyl alcohol, organic solvent or mixture), 800 µg/mL (≈ 1860 µM); in data set [3] (benzyl benzoate, organic solvent or mixture), 1300 µg/mL (≈ 3020 µM); in data set [3] (brij 35 2% solution), 50 µg/mL (≈ 116 µM); in data set [3] (cremophor el, organic solvent or mixture), 200 µg/mL (≈ 464 µM). Further, the solubility is 700 µg/mL (≈ 1630 µM) in [3] (dimethyl acetamide, organic solvent or mixture); under 100 µg/mL in [3] (emulphor el-620p, organic solvent or mixture); under 100 µg/mL in [3] (ethanol usp, organic solvent or mixture); 1500 µg/mL (≈ 3480 µM) in data set [3] (propylene glycol isostearate, organic solvent or mixture); under 100 µg/mL in [3] (propylene glycol, organic solvent or mixture); 100 µg/mL (≈ 232 µM) in data set [3] (triacetin, organic solvent or mixture). Moreover, the solubility in water result in [3] is listed as “insignificant solubility in water”. For the same compound, the solubility range in data set [3] was in the range of 500 to 1500 µg/mL. Also, the parenteral absorption entry in data set [4] is given as “negligible”. For the same compound, the oral absorption result in data set [4] (po) was “slightly better”. In addition, the dose excreted in data set [4] (oral, candidate dosage forms, preliminary, read-out: compound excreted in the feces) is about 90%.
For the compound `C[C@H](N)[C@H](O)c1cccc(O)c1` [Aramine, metaraminol], in data set [1], the “Ambient Solution pH” value is 3.60 and the “pH beyond which significant precipitation occurs” value was 5.80.
Regarding `OCCOCCN1CCN(C(c2ccccc2)c2ccc(Cl)cc2)CC1` (stereo not drawn) [Atarax, hydroxyzine], in data set [1], the “Ambient Solution pH” value is recorded as 5.60 and the “pH beyond which significant precipitation occurs” value is reported as 6.40.
In the case of `C(=N\NC1=NCCN1)/c1c2ccccc2c(/C=N/NC2=NCCN2)c2ccccc12` [Bisantrene HCl], in [5] (sex F), the “External: Reddened” value is on record as “+”, the “External: Yellow Deposit” value is “+”, the “Subcutaneous: Hemorrhage” value was “-” and the “Vascular Lumen: Yellow Deposit” value is “+”. Further, in [5] (sex M), the “External: Reddened” value was “-”, the “External: Swollen” value is recorded as “-”, the “External: Yellow Deposit” value is recorded as “-” and the “Subcutaneous: Edema” value is reported as “+”. Also, in [5] (sex M), the “Subcutaneous: Hemorrhage” value is “-”, the “Subcutaneous: Yellow Deposit” value was “-”, the “Vascular Lumen: Blood Clot” value is recorded as “-” and the “Vascular Lumen: Yellow Deposit” value is “+”.
Regarding `C(=N\NC1=NCCN1)/c1c2ccccc2c(/C=N/NC2=NCCN2)c2ccccc12` [Bisantrene, bis(2-imidazolen-2-ylhydrazone)-9,10-anthracenedicarboxaldehyde], the solubility was 10000 µg/mL (≈ 25100 µM) in [6] (5% dextrose solution, pH 4.6); 90 µg/mL (≈ 226 µM) in data set [6] (Plasma, pH 7.7-8.2); 400 µg/mL (≈ 1000 µM) in data set [6] (Whole Blood, pH 7.9); 2000 µg/mL (≈ 5020 µM) in data set [6] (normal saline, pH 5.5); 27 µg/mL (≈ 67.8 µM) in data set [6] (serum, pH 7.8). Also, in [7], the partitioning into erythrocytes result is “eventually partitions into the erythrocytes”.
As for `N#CC(CCN1CCC(C(N)=O)(N2CCCCC2)CC1)(c1ccccc1)c1ccccc1` [Dipidolor, piritramide], in [1], the “Ambient Solution pH” value is listed as 3.97 and the “pH beyond which significant precipitation occurs” value is given as 4.50.
Turning to `O=C(CCCN1CC=C(n2c(=O)[nH]c3ccccc32)CC1)c1ccc(F)cc1` [Droperidol], in [1], the “Ambient Solution pH” value is 3.24 and the “pH beyond which significant precipitation occurs” value is given as 5.83.
With `CC(=O)Nc1ccc(OCC(O)CNC(C)C)cc1` (stereo not drawn) [Eraldin, practolol], in [1], the “Ambient Solution pH” value is listed as 5.80 and the “pH beyond which significant precipitation occurs” value was 7.40.
Turning to `COc1ccc2c(c1)N(C[C@H](C)CN(C)C)c1ccccc1S2` [Nozinan, levomepromize], in data set [1], the “Ambient Solution pH” value is on record as 4.38 and the “pH beyond which significant precipitation occurs” value is on record as 6.50.
On to `OCCN(CCO)c1nc(N2CCCCC2)c2nc(N(CCO)CCO)nc(N3CCCCC3)c2n1` [Persantine, dipyridamole], for which, in data set [1], the “Ambient Solution pH” value is 3.12 and the “pH beyond which significant precipitation occurs” value was 5.10.
For `CC(CN1c2ccccc2Sc2ccccc21)N(C)C` (stereo not drawn) [Phenergan, promethazine], in data set [1], the “Ambient Solution pH” value is given as 5.68 and the “pH beyond which significant precipitation occurs” value is given as 6.42.
In the case of `CN(C)CCCN1c2ccccc2Sc2ccccc21` [Prazine, promazine], in data set [1], the “Ambient Solution pH” value is reported as 4.85 and the “pH beyond which significant precipitation occurs” value is recorded as 7.10.
As for `OCc1ccccc1` [benzyl alcohol], the antibacterial activity entry in data set [8] is “higher antibacterial activity”. Moreover, the acute systemic toxicity entry in data set [9] (0.9% (w/v), intravenous) is listed as “absence of acute systemic toxicity”. In addition, the half-life (in general, the time in which the quantity being followed falls by half) in data set [9] (in vivo, iv) was 1.5 h. Moreover, in data set [9] (in vivo), the volume of distribution result is given as “widespread tissue dissemination”.
Regarding `C(=N\NC1=NCCN1)/c1c2ccccc2c(/C=N/NC2=NCCN2)c2ccccc12` [bisantrene dihydrochloride], the chemical phlebitis entry in data set [10] is reported as “chemical phlebitis”.
As to `CC1CC(OC(=O)C(O)c2ccccc2)CC(C)(C)C1` (stereo not drawn) [cyclandelate], the “pharmacological effects compared with water solution of the sodium salts” value in data set [11] was “nearly equal”.
As to `CN1C(=O)CN=C(c2ccccc2)c2cc(Cl)ccc21` [diazepam], the “pharmacological effects compared with water solution of the sodium salts” value in data set [11] is listed as “nearly equal”. In addition, the “local reactions upon intravenous injection” value in data set [12] is listed as “may not only cause pain upon intravenous injection, but also thrombophlebitis”.
For `C[C@H]1C[C@@H]2[C@H]([C@@H](O)C[C@@]3(C)[C@H]2CC[C@]3(O)C(=O)COC(=O)CCC(=O)O)[C@@]2(C)C=CC(=O)C=C12` [methylprednisolone sodium succinate], the “tolerability / side effects” value in data set [13] (benzyl alcohol or paraben preservative) was “well tolerated and no important drug-related side effects were encountered”. For the same compound, in [13], the “changes in vital signs, electrocardiograms, electroencephalograms, or laboratory parameters” value was “No clinically significant changes” and the “expected corticosteroid induced changes” value is on record as “reversible”.
In the case of `O=[N+]([O-])OCC(CO[N+](=O)[O-])O[N+](=O)[O-]` [nitroglycerin], the “pharmacological effects compared with water solution of the sodium salts” value in [11] was “nearly equal”.

(Values after patent US4784845A, “Emulsion compostions for the parenteral administration of sparingly water soluble ionizable hydrophobic drugs” (American Cyanamid Company, priority 1985, dated 1988).)
